Laboratory results: PMC9666555, “Genuine selective caspase-2 inhibition with new irreversible small peptidomimetics” (Cell Death & Disease, 2022)
Non-standard residues stand in square brackets, D forms with d. Residues, ends and D or L forms follow the SMILES beside them. ξ: configuration not given here. *: point of attachment. ξTHIQ1CO(6-Me) = Cc1ccc2c(c1)CCNC2C(=O)O; X1 = O=C(O)CC(N*)C(=O)COc1c(F)cccc1F; Quinaldoyl = O=C(c1ccc2ccccc2n1)*

Tests used:
[1] = biological target: T1, human active recombinant Caspase-3 (Homo sapiens, UniProt P42574); assay: In vitro caspase activity and inhibition assay (IC50), Caspase-3; type: biochemical; settings: 30 min preincubation; 0.1 nM Caspase-3, 10 µM Ac-DEVD-AMC; read-out: Enzyme assays Casp3 IC50 (converted)
T1 sequence (P42574 29-175 limits assumed): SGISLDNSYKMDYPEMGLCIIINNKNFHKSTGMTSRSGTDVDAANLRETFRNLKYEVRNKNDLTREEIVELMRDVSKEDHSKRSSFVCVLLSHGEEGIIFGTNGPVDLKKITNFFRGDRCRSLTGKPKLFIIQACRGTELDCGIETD
T1 sequence (P42574 176-277 limits assumed): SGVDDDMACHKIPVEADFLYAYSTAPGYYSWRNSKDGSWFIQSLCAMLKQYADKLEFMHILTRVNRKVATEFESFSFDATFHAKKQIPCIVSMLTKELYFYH
Procedure: The human active recombinant Caspase-3 (#707-C3) was purchased from R&D Systems (Minneapolis, USA). […] Stock solutions were stored at −80 °C. […] Caspase inhibitors were solubilized in DMSO at 10 mM and stored at −80 °C.
Initial velocity (V0) was determined from the linear portion of the progress curve. The composition of the activity buffer was: 20 mM HEPES, pH 7.4; 0.1% CHAPS, 5 mM DTT, 2 mM EDTA; 800 mM sodium succinate for Caspase-2 (0.2 nM) with 25 µM of Ac-VDVAD-7-amino-3-methylcoumarin (AMC) and 20 mM HEPES, pH 7.4; 0.1% CHAPS, 5 mM DTT, 2 mM EDTA; supplemented with 1 mg/mL of stabilizing agent bovine serum albumin (BSA) for Caspase-3 (0.1 nM) with 10 μM of Ac-DEVD-AMC. Compounds (0.001–100 µM) were tested in duplicate for each inhibitor concentration to detect their inhibitory potential. Enzymes and compounds were incubated for 30 min before initiating enzymatic reaction by adding substrate. Initial rates determined in control experiments (V0) were considered as 100% of the caspase activity; initial rates that were below 100% in the presence of tested compound (Vi) were considered as inhibition. The inhibitory activity of compounds was expressed as IC50 (Inhibitor concentration giving 50% inhibition). The values of IC50 were calculated by fitting the experimental data using Mars data Analysis 2.0 and KaleidaGraph software.1 %Inhibition=1001−Vi/V0=100I0/IC50+I0

[2] = system: Casp2-mediated Mdm-2 cleavage in H9 hESC-derived NPCs; assay: Reversine-induced Mdm-2 cleavage in neural progenitor cells (WB); type: cell-based, human; settings: 1 µM reversine 24 h
Procedure: The H9 human embryonic stem cell (hESC) line (WA09, WiCell) was maintained on mouse embryonic fibroblasts (MTI-GlobalStem) feeder culture in HUESM medium (20% KSR in KO-DMEM, 1% MEM-NEAA, 1% Pen–Strep, 0.1 mM 2 mercaptoethanol (Life technologies) 10 ng ml^−1 FGF2 (Biotechne), and differentiated into NPCs as previously described [Supplementary ref. 10] [Supplementary ref. 11]. In brief, hESC colonies were lifted with collagenase IV (1 mg ml^−1 in DMEM) at 37 °C for 1–2 h. Colonies lifted from the plate were transferred to a non-adherent plate (Corning) to generate embryoid bodies (EBs) for 1 day in N2/B27 medium (DMEM/F12-GlutaMAX, 1× N2 supplement, 1× B27 no RA supplement; Life). EBs were cultured in suspension in N2/B27 medium with dual-SMAD inhibitors (0.1 µM LDN193189 and 10 µM SB431542) for 7 days. […]
H9-hNPCs were pretreated (or not) for 1 h with LJ3a and treated with 1 µM reversine (#10004412, Cayman Chemicals, Ann Arbor, MI) for 24 h. […] After the BCA assay for protein quantification, samples were subject to polyacrylamide gel electrophoresis-sodium dodecyl sulfate analysis (60 min, 200 V, 12% bis–tris 12-well gels), followed by transfer to nitrocellulose membrane (60 min, 30 V). […] Protein bands were quantified using Image Studio Lite Quantification software (LI-COR®, Lincoln, NE). […]
recorded on the LJ3a sample. […]

Row | SMILES | IC50 [1] [nM] | effect on reversine-induced Mdm-2 cleavage ([2]; 10 µM) | effect on reversine-induced Mdm-2 cleavage ([2]; submicromolar concentrations)
1 | Cc1ccc2c(c1)CCN(C(=O)[C@@H](NC(=O)[C@H](CC(=O)O)NC(=O)[C@@H](NC(=O)c1ccc3ccccc3n1)C(C)C)C(C)C)C2C(=O)NC(CC(=O)O)C(=O)COc1c(F)cccc1F (stereo partly drawn) [LJ2, Quinolin-2-carbonyl-VDV-(methyl-isoquinolyl)-D-CH2-O(2,6F2)Ph] (Quinaldoyl-VDV[ξTHIQ1CO(6-Me)]-X1) | 140 ± 5 |  | 
2 | CC(C)[C@H](NC(=O)c1ccc2ccccc2n1)C(=O)N[C@@H](CC(=O)O)C(=O)N[C@H](C(=O)N1CC[C@H](CC(C)(C)C)[C@@H]1C(=O)NC(CC(=O)O)C(=O)COc1c(F)cccc1F)C(C)C (stereo partly drawn) [LJ3a] |  | completely abolished | significantly prevented
